Legend:
[1] = Pharmacokinetics assay in SD rats (LC/MS/MS plasma concentration); format: in vivo; settings: oral gavage, 15 mg/kg
Experimental: The pharmacokinetic behavior of the compounds of the present invention was studied and evaluated in rats.
24 Healthy adult SD rats, male and female in half, were purchased from SINO-BRITSH SIPPR/BK LAB. ANIMAL LTD., CO, Certificate No.: SCXK (Shanghai) 2003-0002.
The intragastrical administration group: the right amount of tested compounds were weighed and dissolved in 0.5 mL of DMSO, diluted with physiological saline to 10 mL and prepared to 1.5 mg/mL.
The intravenous injection administration group: the right amount of tested compounds were weighed and added into […].
After an overnight fast, 24 healthy adult SD rats, male and female in half, were administered intragastrically at a dose of 15.0 mg/kg and an administration volume of 10 mL/kg.
(§1) The intragastrical administration group: blood samples (0.2 mL) were taken from orbital sinus at pre administration and at 0.25 hour, 0.5 hour, 1.0 hour, 1.5 hours, 2.0 hours, 3.0 hours, 4.0 hours, 6.0 hours, 7.0 hours, 9.0 hours, 12.0 hours and 24.0 hours post administration, stored in heparinized tubes and centrifuged for 20 minutes at 3,500 rpm to separate plasma. The plasma samples were stored at −20° C. The rats were fed at 2 hours after administration.
as §1, with “intravenous injection” for “intragastrical”, “2 minutes, 15 minutes,” for “0.25 hour,”, “hour,” for “hour, 1.5 hours,”, “8.0” for “7.0 hours, 9.0”, “C.” for “C. The rats were fed at 2 hours after administration.”
20 μL of rat blank plasmas taken at various time points after administration were added with 50 μL of internal standard solution and 140 μL of methanol and mixed for 3 minutes by a vortexer. The mixture was centrifuged for 10 minutes at 13,500 rpm. 20 μL of the supernatant was analyzed by LC-MS/MS. The main pharmacokinetic parameters were calculated by software DAS 2.0.

[2] = tested on: human breast cancer cells MX-1; test: Antitumor effect with temozolomide on MX-1 transplanted tumors in nude mice; format: in vivo; settings: breast cancer MX-1 in BALB/cA-nude mice, day 8
Experimental: The therapeutic effect of the compounds of the present invention administered in combination with temozolomide (TMZ) on transplanted tumors of human colon carcinoma SW620 or human breast cancer cells MX-1 in nude mice was evaluated by using BALB/cA-nude mice as test animals. BALB/cA-nude mice, SPF, 16-20 g, female( ), were purchased from SINO-BRITSH SIPPR/BK LAB. ANIMAL LTD., CO. Certificate No.: SCXK(Shanghai) 2008-0016. Nude mice were subcutaneously inoculated with human breast cancer cells MX-1. After tumors grew to 100 to 200 mm^3, mice were randomly divided into teams (d0). The volume of tumors and the weight of the mice were measured and recorded for 2 to 3 times per week. The volume of tumor (V) was calculated by the follow equation: V=½×a×b^2 wherein: a, b represents length and width respectively. The antitumor rate(%)=(C−T)/C(%) wherein: T, C represents the tumor volume of the experimental group (tested compounds) and blank control group at the end of the experiment respectively. 5. Dosage, Dosage Regimens and the Results

[3] = tested on: human colon carcinoma SW620; test: Antitumor effect with temozolomide on SW620 transplanted tumors in nude mice; format: in vivo; settings: colon carcinoma SW620 in BALB/cA-nude mice; 10 mg/kg oral gavage + TMZ 50 mg/kg oral gavage; day 52
Experimental: The therapeutic effect of the compounds of the present invention administered in combination with temozolomide (TMZ) on transplanted tumors of human colon carcinoma SW620 or human breast cancer cells MX-1 in nude mice was evaluated by using BALB/cA-nude mice as test animals.
BALB/cA-nude mice, SPF, 16-20 g, female( ), were purchased from SINO-BRITSH SIPPR/BK LAB. ANIMAL LTD., CO. Certificate No.: SCXK(Shanghai) 2008-0016.
4.2 The right rib of the nude mice was subcutaneously inoculated with colon carcinoma cells SW620. After tumors grew to 339±132 mm^3, mice were randomly divided into teams (d0).
The volume of tumors and the weight of the mice were measured and recorded for 2 to 3 times per week.
The volume of tumor (V) was calculated by the follow equation: V=½×a×b^2 wherein: a, b represents length and width respectively. The antitumor rate(%)=(C−T)/C(%) wherein: T, C represents the tumor volume of the experimental group (tested compounds) and blank control group at the end of the experiment respectively. 5. Dosage, Dosage Regimens and the Results

MDA-MB-436 cells = test: Cell proliferation inhibition assay (CCK8); format: cell-based; settings: Homo sapiens, 72 hours

- AUC ([1]; both sexes, rat, plasma, read-out: Area Under Curve AUC): 12600 ± 12400 ng·h/mL
- half-life ([1]; both sexes, rat, plasma, read-out: Half-Life t1/2 (converted)): 587 ± 289 min
- MRT ([1]; both sexes, rat, plasma, read-out: Mean Residence Time MRT): 3.5 ± 1.46 h
- Cmax ([1]; both sexes, rat, plasma, read-out: Plasma Conc. Cmax): 2340 ± 1650 ng/mL
- Apparent Distribution Volume Vz/F [1]: 7.97 ± 5.38 kg⁻¹
- Clearance CL/F [1]: 3.45 ± 3.21 1/11/kg
- IC50 (MDA-MB-436 cells): 49 nM
SMILES: O=C(c1cc(Cc2n[nH]c(=O)c3ccccc23)ccc1F)N1CCn2nc(C(F)(F)F)nc2C1 [Example 19, 4-[[4-fluoro-3-[2-(trifluoromethyl)-6,8-dihydro-5H-[1,2,4]triazolo[1,5-a]pyrazine-7-carbonyl]phenyl]methyl]-2H-phthalazin-1-one]
- antitumor rate (%) ([2]; 1 mg/kg oral gavage + TMZ 50 mg/kg oral gavage): +++ (“+++”: 80%~100%)
- antitumor rate (%) ([2]; 3 mg/kg oral gavage + TMZ 50 mg/kg oral gavage): +++ (“+++”: 80%~100%)
- antitumor rate (%) ([2]; 10 mg/kg oral gavage + TMZ 50 mg/kg oral gavage): +++ (“+++”: 80%~100%)
- antitumor rate (%) [3]: ++ (“++”: 60%~80%)
